Assay results published in ChEMBL document CHEMBL2040796, “Synthesis and biological activity of both enantiomers of kujigamberol isolated from 85-million-years-old Kuji amber” (Bioorg Med Chem Lett, 2012).
pIC50: −log10 of the molar value. The source made the active and inactive calls. The calls are words filed in the database; no cut-off is given here.

System: HL-60
Experiment: Cytotoxicity against human HL60 cells
Format: functional, cell-based

**Q.** How did the pIC50 turn out when Cc1ccc2c(c1CCC(C)C)CCC[C@]2(C)CO [KUJIGAMBEROL] was run?
**A.** The pIC50 was 4.62.

**Q.** For COC(=O)C1(C)CCCc2ccccc21 (configuration not stated), which Activity is on record?
**A.** The Activity was “inactive”.

**Q.** How did the Activity turn out when Cc1ccc2c(c1CCC(C)C)CCC[C@@]2(C)CO was run?
**A.** Its Activity is “Active”.

**Q.** Which Activity does the source give for Cc1ccc2c(c1CCC(C)C)CCCC2CO (configuration not stated) here?
**A.** Its Activity is “Active”.

**Q.** For OCC1CCCc2ccccc21 (configuration not stated), which Activity is on record?
**A.** The Activity was “inactive”.

**Q.** CC1(CO)CCCc2ccccc21 (configuration not stated) was tested. Which Activity did it give?
**A.** Its Activity is “inactive”.

System: Saccharomyces cerevisiae
Experiment: Antimicrobial activity against Saccharomyces cerevisiae harboring zds1delta, erg3delta pdr1delta pdr3delta mutant assessed as clear growth restored zone at 0.5 to 0.0156 ug/spot
Format: functional, organism-based

**Q.** How did the Activity turn out when Cc1ccc2c(c1CCC(C)C)CCC[C@]2(C)CO [KUJIGAMBEROL] was run?
**A.** The Activity was “Active”.

**Q.** For COC(=O)C1(C)CCCc2ccccc21 (configuration not stated), which Activity is on record?
**A.** Its Activity is “inactive”.

**Q.** Cc1ccc2c(c1CCC(C)C)CCC[C@@]2(C)CO was tested. Which Activity did it give?
**A.** The Activity was “Active”.

**Q.** Cc1ccc2c(c1CCC(C)C)CCCC2CO (configuration not stated) was tested. Which Activity did it give?
**A.** Its Activity is “Active”.

**Q.** How did the Activity turn out when OCC1CCCc2ccccc21 (configuration not stated) was run?
**A.** Its Activity is “inactive”.

**Q.** How did the Activity turn out when CC1(CO)CCCc2ccccc21 (configuration not stated) was run?
**A.** Its Activity is “inactive”.
